Reference: paper PMC8330742, “New benzothieno[2,3-c]pyridines as non-steroidal CYP17 inhibitors: design, synthesis, anticancer screening, apoptosis induction, and in silico ADME profile studies” (Journal of Enzyme Inhibition and Medicinal Chemistry, 2021)

Experiments:
UACC-62 = test: NCI-60 SRB screen; assay type: cell-based, human; settings: Homo sapiens; UACC-62; single dose 10^−5 M; read-out: Growth inhibition (%)
NCI-H226 = test: NCI-60 SRB screen; assay type: cell-based, human; settings: Homo sapiens; NCI-H226; single dose 10^−5 M; read-out: Growth inhibition (%)
EKVX = test: NCI-60 SRB screen; assay type: cell-based, human; settings: Homo sapiens, single dose 10^−5 M, read-out: Growth inhibition (%)
OVCAR-4 = test: NCI-60 SRB screen; assay type: cell-based, human; settings: Homo sapiens; OVCAR-4; single dose 10^−5 M; read-out: Growth inhibition (%)
ACHN = test: NCI-60 SRB screen; assay type: cell-based; settings: Homo sapiens, single dose 10^−5 M, read-out: Growth inhibition (%)
M14 = test: NCI-60 SRB screen; assay type: cell-based, human; settings: Homo sapiens; M14; single dose 10^−5 M; read-out: Growth inhibition (%)
A549/ATCC = test: NCI-60 SRB screen; assay type: cell-based, human; settings: Homo sapiens, single dose 10^−5 M, read-out: Growth inhibition (%)
HCC-2998 = test: NCI-60 SRB screen; assay type: cell-based, human; settings: Homo sapiens; HCC-2998; single dose 10^−5 M; read-out: Growth inhibition (%)
K-562 = test: NCI-60 SRB screen; assay type: cell-based, human; settings: Homo sapiens, K562; K-562; single dose 10^−5 M; read-out: Growth inhibition (%)
RXF 393 = test: NCI-60 SRB screen; assay type: cell-based, human; settings: Homo sapiens; RXF 393; single dose 10^−5 M; read-out: Growth inhibition (%)
SK-MEL-5 = test: NCI-60 SRB screen; assay type: cell-based, human; settings: Homo sapiens; SK-MEL-5; single dose 10^−5 M; read-out: Growth inhibition (%)
SK-MEL-2 = test: NCI-60 SRB screen; assay type: cell-based, human; settings: Homo sapiens; SK-MEL-2; single dose 10^−5 M; read-out: Growth inhibition (%)
SK-MEL-28 = test: NCI-60 SRB screen; assay type: cell-based; settings: Homo sapiens; SK-MEL-28; single dose 10^−5 M; read-out: Growth inhibition (%)
SF-295 = test: NCI-60 SRB screen; assay type: cell-based, human; settings: Homo sapiens; SF-295; single dose 10^−5 M; read-out: Growth inhibition (%)
OVCAR-8 = test: NCI-60 SRB screen; assay type: cell-based, human; settings: Homo sapiens; OVCAR-8; single dose 10^−5 M; read-out: Growth inhibition (%)
SN12C = test: NCI-60 SRB screen; assay type: cell-based, human; settings: Homo sapiens, SN12C; SN 12 C; single dose 10^−5 M; read-out: Growth inhibition (%)
MDA-MB-435 = test: NCI-60 SRB screen; assay type: cell-based; settings: Homo sapiens, MDA-MB-435, read-out: Growth inhibition (%)
NCI-H460 = test: NCI-60 SRB screen; assay type: cell-based, human; settings: Homo sapiens; NCI-H460; single dose 10^−5 M; read-out: Growth inhibition (%)
UO-31 = test: NCI-60 SRB screen; assay type: cell-based, human; settings: Homo sapiens; UO-31; single dose 10^−5 M; read-out: Growth inhibition (%)
NCI-H23 = test: NCI-60 SRB screen; assay type: cell-based, human; settings: Homo sapiens; NCI-H23; single dose 10^−5 M; read-out: Growth inhibition (%)
HOP-62 = test: NCI-60 SRB screen; assay type: cell-based, human; settings: Homo sapiens; HOP-62; single dose 10^−5 M; read-out: Growth inhibition (%)
SW-620 = test: NCI-60 SRB screen; assay type: cell-based; settings: Homo sapiens; SW-620; single dose 10^−5 M; read-out: Growth inhibition (%)
MOLT-4 = test: NCI-60 SRB screen; assay type: cell-based; settings: Homo sapiens; MOLT-4; single dose 10^−5 M; read-out: Growth inhibition (%)
LOX IMVI = test: NCI-60 SRB screen; assay type: cell-based, human; settings: Homo sapiens, single dose 10^−5 M, read-out: Growth inhibition (%)
NCI-H522 = test: NCI-60 SRB screen; assay type: cell-based, human; settings: Homo sapiens; NCI-H522; single dose 10^−5 M; read-out: Growth inhibition (%)
COLO 205 = test: NCI-60 SRB screen; assay type: cell-based, human; settings: Homo sapiens; COLO 205; single dose 10^−5 M; read-out: Growth inhibition (%)
HT-29 = test: NCI-60 SRB screen; assay type: cell-based; settings: Homo sapiens; HT-29; single dose 10^−5 M; read-out: Growth inhibition (%)
IGROV1 = test: NCI-60 SRB screen; assay type: cell-based, human; settings: Homo sapiens, IGROV-1; IGROV1; single dose 10^−5 M; read-out: Growth inhibition (%)
NCI/ADR-RES = test: NCI-60 SRB screen; assay type: cell-based, human; settings: Homo sapiens, single dose 10^−5 M, read-out: Growth inhibition (%)
OVCAR-3 = test: NCI-60 SRB screen; assay type: cell-based, human; settings: Homo sapiens; OVCAR-3; single dose 10^−5 M; read-out: Growth inhibition (%)
CAKI-1 = test: NCI-60 SRB screen; assay type: cell-based, human; settings: Homo sapiens; CAKI-1; single dose 10^−5 M; read-out: Growth inhibition (%)
NCI-H322M = test: NCI-60 SRB screen; assay type: cell-based, human; settings: Homo sapiens, single dose 10^−5 M, read-out: Growth inhibition (%)
KM12 = test: NCI-60 SRB screen; assay type: cell-based, human; settings: Homo sapiens; KM12; single dose 10^−5 M; read-out: Growth inhibition (%)
HOP-92 = test: NCI-60 SRB screen; assay type: cell-based, human; settings: Homo sapiens; HOP-92; single dose 10^−5 M; read-out: Growth inhibition (%)
HL-60(TB) = test: NCI-60 SRB screen; assay type: cell-based, human; settings: Homo sapiens; HL-60 (TB); single dose 10^−5 M; read-out: Growth inhibition (%)
SF-268 = test: NCI-60 SRB screen; assay type: cell-based, human; settings: Homo sapiens; SF-268; single dose 10^−5 M; read-out: Growth inhibition (%)
UACC-257 = test: NCI-60 SRB screen; assay type: cell-based, human; settings: Homo sapiens, UACC-257; UACC-275 (so in the source); single dose 10^−5 M; read-out: Growth inhibition (%)
[1] = tested on: panel of 60 cancer cell lines; test: NCI-60 SRB screen, mean or range over the panel; assay type: cell-based, human; settings: Homo sapiens; mean over the cell lines; single dose 10^−5 M; read-out: Mean growth inhibition (%)
HCT-15 = test: NCI-60 SRB screen; assay type: cell-based, human; settings: Homo sapiens; HCT-15; single dose 10^−5 M; read-out: Growth inhibition (%)
786-0 = test: NCI-60 SRB screen; assay type: cell-based; settings: Homo sapiens; 786-0; single dose 10^−5 M; read-out: Growth inhibition (%)
HCT-116 = test: NCI-60 SRB screen; assay type: cell-based, human; settings: Homo sapiens; HCT-116; single dose 10^−5 M; read-out: Growth inhibition (%)
SR = test: NCI-60 SRB screen; assay type: cell-based; settings: Homo sapiens, single dose 10^−5 M, read-out: Growth inhibition (%)
TK-10 = test: NCI-60 SRB screen; assay type: cell-based, human; settings: Homo sapiens; TK-10; single dose 10^−5 M; read-out: Growth inhibition (%)
MALME-3M = test: NCI-60 SRB screen; assay type: cell-based, human; settings: Homo sapiens, single dose 10^−5 M, read-out: Growth inhibition (%)
CCRF-CEM = test: NCI-60 SRB screen; assay type: cell-based; settings: Homo sapiens, single dose 10^−5 M, read-out: Growth inhibition (%)

COc1ccc(C2NC(=O)C(C#N)c3c2sc2c(F)cccc32)cc1 (stereo not drawn) [Compound 5b, 4-Cyano-8-fluoro-1-(4-methoxyphenyl)-1,2-dihydro[1]benzothieno[2,3-c] pyridin-3(4H)-one]
inhibition at 10 µM (UACC-62): 64.7% | inhibition at 10 µM (NCI-H226): 39.8% | inhibition at 10 µM (EKVX): 38.3% | inhibition at 10 µM (OVCAR-4): 28.4% | inhibition at 10 µM (ACHN): 55.5% | inhibition at 10 µM (M14): 66.7% | inhibition at 10 µM (A549/ATCC): 58.5% | inhibition at 10 µM (HCC-2998): 8.46% | inhibition at 10 µM (K-562): 86% | inhibition at 10 µM (RXF 393): 44.1% | inhibition at 10 µM (SK-MEL-5): 39.5% | inhibition at 10 µM (SK-MEL-2): 40% | inhibition at 10 µM (SK-MEL-28): 47.4% | inhibition at 10 µM (SF-295): 69.5% | inhibition at 10 µM (OVCAR-8): 30.2% | inhibition at 10 µM (SN12C): 38.6% | inhibition at 10 µM (MDA-MB-435): 109% | inhibition at 10 µM (NCI-H460): 71.4% | inhibition at 10 µM (UO-31): 64.2% | inhibition at 10 µM (NCI-H23): 24.8% | inhibition at 10 µM (HOP-62): 54.6% | inhibition at 10 µM (SW-620): 75.7% | inhibition at 10 µM (MOLT-4): 50.9% | inhibition at 10 µM (LOX IMVI): 54.4% | inhibition at 10 µM (NCI-H522): 79.9% | inhibition at 10 µM (COLO 205): 8.44% | inhibition at 10 µM (HT-29): 49.5% | inhibition at 10 µM (IGROV1): 58.9% | inhibition at 10 µM (NCI/ADR-RES): 70.7% | inhibition at 10 µM (OVCAR-3): 99.4% | inhibition at 10 µM (CAKI-1): 60% | inhibition at 10 µM (NCI-H322M): 34.8% | inhibition at 10 µM (KM12): 60% | inhibition at 10 µM (HOP-92): 45.9% | inhibition at 10 µM (HL-60(TB)): 89.5% | inhibition at 10 µM (SF-268): 39% | inhibition at 10 µM (UACC-257): 36.1% | inhibition at 10 µM [1]: 52.5% | inhibition at 10 µM (HCT-15): 66.5% | inhibition at 10 µM (786-0): 29.1% | inhibition at 10 µM (HCT-116): 62.5% | inhibition at 10 µM (SR): 77.9% | inhibition at 10 µM (TK-10): -12.7% | inhibition at 10 µM (MALME-3M): 52.9% | inhibition at 10 µM (CCRF-CEM): 66%

O=C1NC(c2cccc([N+](=O)[O-])c2)c2sc3c(F)cccc3c2C1N1CCCCC1 (stereo not drawn) [Compound 6c, 8-Fluoro-1-(3-nitrophenyl)-4-(piperidin-1-yl)-1,2-dihydro[1]benzothieno [2,3-c]pyridin-3(4H)-one]
inhibition at 10 µM (UACC-62): 4.85% | inhibition at 10 µM (NCI-H226): 8.71% | inhibition at 10 µM (EKVX): 5.86% | inhibition at 10 µM (OVCAR-4): -4.39% | inhibition at 10 µM (ACHN): 9.32% | inhibition at 10 µM (M14): 1.9% | inhibition at 10 µM (A549/ATCC): -0.32% | inhibition at 10 µM (HCC-2998): 2.82% | inhibition at 10 µM (K-562): 6.11% | inhibition at 10 µM (RXF 393): 6.16% | inhibition at 10 µM (SK-MEL-5): 1.15% | inhibition at 10 µM (SK-MEL-2): -8.06% | inhibition at 10 µM (SK-MEL-28): -12.4% | inhibition at 10 µM (SF-295): 2.28% | inhibition at 10 µM (OVCAR-8): 5% | inhibition at 10 µM (SN12C): 2.45% | inhibition at 10 µM (MDA-MB-435): -8.63% | inhibition at 10 µM (NCI-H460): -0.58% | inhibition at 10 µM (UO-31): 32.2% | inhibition at 10 µM (NCI-H23): 5.16% | inhibition at 10 µM (HOP-62): 11.5% | inhibition at 10 µM (SW-620): 7.46% | inhibition at 10 µM (MOLT-4): 8.91% | inhibition at 10 µM (LOX IMVI): 2.5% | inhibition at 10 µM (NCI-H522): 14% | inhibition at 10 µM (COLO 205): -12.7% | inhibition at 10 µM (HT-29): 9% | inhibition at 10 µM (IGROV1): 20.7% | inhibition at 10 µM (NCI/ADR-RES): -1.66% | inhibition at 10 µM (OVCAR-3): -2.74% | inhibition at 10 µM (CAKI-1): 17.6% | inhibition at 10 µM (NCI-H322M): 2.6% | inhibition at 10 µM (KM12): 2.91% | inhibition at 10 µM (HOP-92): 14.1% | inhibition at 10 µM (HL-60(TB)): -17% | inhibition at 10 µM (SF-268): 2.64% | inhibition at 10 µM (UACC-257): -6.77% | inhibition at 10 µM [1]: 2.54% | inhibition at 10 µM (HCT-15): 3.74% | inhibition at 10 µM (786-0): -6.36% | inhibition at 10 µM (HCT-116): 20.6% | inhibition at 10 µM (SR): 0.3% | inhibition at 10 µM (TK-10): -42.2% | inhibition at 10 µM (MALME-3M): -1.85% | inhibition at 10 µM (CCRF-CEM): 1.84%
